Data taken from patent US6335030B1, “Transdermally administered dextromethorphan as antitussive agent” (Pharmacia & Upjohn AB, priority 1996, dated 2002).

What was measured:
[1] = in vivo; cited from earlier work
[2] = peroral, dogs; cited from earlier work
[3] = In vitro skin permeation in Franz diffusion cells; assay type: in vitro ADME, pig
Excerpt: Quantitative determination of dextromethorphan in the receptor solution samples from the skin permeation studies in Example 3 and from the membrane permeation studies in Example 4 was done by the HPLC method described under Apparatus.
In vitro permeation of dextromethorphan from the solutions 1, 2, 3, 4, 5, 6, 7 and 8 through dermatomed pig skin was investigated in Franz diffusion Cells.
Skin pieces with a thickness of approximately 765 μm were dermatomed from full thickness pig skin and mounted in glass diffusion cells with an available diffusion area of 1.8 cm^2. Pig skin is a fully accepted model for human skin. The solutions were applied separately on the skin surfaces and the dermal sides were all exposed to 12.1 ml receptor solution consisting of a 0.05M phosphate buffer solution of pH 7.4 equilibrated to 37±1° C.
Permeation of dextromethorphan was followed by removing samples periodically and measuring the concentration by the HPLC method according to Example 2. An increase in the permeated amount of dextromethorphan is seen in the following order: Water, isopropyl myristate, propylene glycol, propylene glycol containing 5% azone, water containing 1% hydroxpropyl-b-cyclodextrine, water containing 1% b-cyclodextrine, ethanol and ethyl acetate used as solvents. The maximal observed flux of dextromethorphan is 21 μg/cm^2/h and the range is from approximately 0.5 to 21 μg/cm^2/h.

[4] = in vivo; cited from earlier work; remark: listed apart in the source
[5] = cited from earlier work

COc1ccc2c(c1)[C@]13CCCC[C@@H]1[C@H](C2)N(C)CC3 [dextromethorphan, (+)-3-methoxy-17-methyl-9a,13a,14a-morphinan]
half-life [1]: 4 to 6 h | absolute bioavailability [2]: 3.8% | maximal observed flux through skin ([3]; dermatomed pig skin, solutions 1-8, receptor phosphate buffer pH 7.4, 37°C): 21 μg/cm^2/h | change of flux depending on solvent ([3]; ethanol, ethyl acetate or addition of cyclodextrines as solvent): remarkable increase in the fluxes | safety [4]: safe drug | side-effects compared with codeine and noscapine [4]: fewer side-effects | effect on coughing frequency and intensity compared to placebo ([5]; 40 mg perorally, tussometri): significant effect on reducing coughing frequency as well as intensity | antitussive effect upon inhalation ([5]; inhalation of 1-30 mg): has not shown any antitussive effect
